System: STING
Assay: IP10 production in human dermal microvascular endothelial cells (MVEC) after double-stranded DNA stimulation
Assay type: cell-based
Conditions: IP10 production after dsDNA stimulation; rounded average of multiple experiments; read-out: Inhibition of Human microvascular endothelial cells (IC50 nM)
Excerpt: Interferon gamma-induced protein 10 (IP-10) also known as C—X—C motif chemokine ligand 10 (CXCL10) is produced as one of the responses of the presence of double-stranded DNA in the cytoplasm and resulting STING activity. In some diseases, imbalanced STING activation can result to damage in the endothelium, for example in SAVI patients (Liu Yet al. Activated STING in a vascular and pulmonary syndrome. N Engl J Med. 2014 Aug. 7; 371(6):507-518. doi: 10.1056/NEJMoa1312625). To test the efficacy of the inventive STING inhibitors, experiments in human microvascular endothelial cells (HMVEC) are performed with the inventive compounds. Dermal HMVEC are available from Lonza, US. They are cultured in 96 well plates according to the manufacturer's instructions. Using typical protocols, the cells are serum starved and then treated with the compound for 1 hour. The cells are then treated with 400 ng/mL of dsDNA as a complex with Lipofectamine 3000 (from Thermo Fisher Scientific Inc., Waltham, MA, USA) and incubated for 6 hours. The supernatants are collected and assayed for IP10 production.
Detection of IP10 is done using the U-PLEX HUMAN IP-10 ASSAY from Meso Scale Diagnostics (1601 Research Boulevard, Rockville, Maryland 20850-3173, USA) according to manufacturer's protocols.

| Structure (SMILES) | IC50 |
| --- | --- |
| CC[P@](C)(=O)c1ccc(-c2nc(-c3cccc4nn(-c5cc(C(F)(F)F)n(C)n5)cc34)c(C3CC3)n2C)c(OC(F)(F)F)c1 [Example 10, 4-(5-cyclopropyl-2-{4-[(S)-ethyl(methyl)phosphoryl]-2-(trifluoromethoxy)phenyl}-1-methyl-1H-imidazol-4-yl)-2-[1-methyl-5-(trifluoromethyl)-1H-pyrazol-3-yl]-2H-indazole] | 11 nM |
| CC[P@](C)(=O)c1ccc(-c2nc(-c3cccc4nn(-c5cc(C(F)F)n(C)n5)cc34)c(C3CC3)n2C)c(OC(F)(F)F)c1 [Example 7, 4-(5-cyclopropyl-2-{4-[(S)-ethyl(methyl)phosphoryl]-2-(trifluoromethoxy)phenyl}-1-methyl-1H-imidazol-4-yl)-2-[5-(difluoromethyl)-1-methyl-1H-pyrazol-3-yl]-2H-indazole] | 21 nM |
| Cn1nc(-n2cc3c(-c4nc(-c5ccc(P(C)(C)=O)cc5OC(F)(F)F)n(C)c4C4CC4)cccc3n2)cc1C(F)(F)F [Example 20, 4-{5-cyclopropyl-2-[4-(dimethylphosphoryl)-2-(trifluoromethoxy)phenyl]-1-methyl-1H-imidazol-4-yl}-2-[1-methyl-5-(trifluoromethyl)-1H-pyrazol-3-yl]-2H-indazole] | 33 nM |

Source: US20250333398A1, “MONOARYL AND HETARYL SUBSTITUTED INDAZOLES AND BENZIMIDAZOLES AS STING ANTAGONISTS AND THE USE THEREOF AS MEDICAMENT” (Boehringer Ingelheim International GmbH, priority 2024, published 2025)
